Measurements reported in article PMC10799935, “Discovery of a peripheral 5HT2A antagonist as a clinical candidate for metabolic dysfunction-associated steatohepatitis” (Nature Communications, 2024).
“And” between values parts separate entries of the source, which are not always exact repeats. Equal entries are not always repeated.

Tests used:
[1] = system: CDAHFD-fed C57BL/6 J mice; assay: CDAHFD mice (12 weeks): body weight and clinical signs; type: in vivo, mouse; parameters: Body weight: unit: g; conditions: for Body weight, Mean Diff.: Tukey; for Body weight, Mean (one-way ANOVA): mean of 13 weekly values
Description: C57BL/6 J male mice were purchased from the Japan SLC. Inc (Hamamatsu, Japan). Mice (5 weeks old) were fed Teklad Certitied Irradiated Global 18% protein rodent diet purchased from Dooyeol Biotech Co. Ltd (Seoul, South Korea) during the acclimation period. The liver fibrosis/inflammation-induced groups were CDAHFD-fed (A06071302, Research diet). […] All animal experiments complied with the relevant ethical regulations.

[2] = biological target: CYP3A4 (Homo sapiens, UniProt P08684); assay: in vitro
CYP3A4, sequence (P08684 whole entry): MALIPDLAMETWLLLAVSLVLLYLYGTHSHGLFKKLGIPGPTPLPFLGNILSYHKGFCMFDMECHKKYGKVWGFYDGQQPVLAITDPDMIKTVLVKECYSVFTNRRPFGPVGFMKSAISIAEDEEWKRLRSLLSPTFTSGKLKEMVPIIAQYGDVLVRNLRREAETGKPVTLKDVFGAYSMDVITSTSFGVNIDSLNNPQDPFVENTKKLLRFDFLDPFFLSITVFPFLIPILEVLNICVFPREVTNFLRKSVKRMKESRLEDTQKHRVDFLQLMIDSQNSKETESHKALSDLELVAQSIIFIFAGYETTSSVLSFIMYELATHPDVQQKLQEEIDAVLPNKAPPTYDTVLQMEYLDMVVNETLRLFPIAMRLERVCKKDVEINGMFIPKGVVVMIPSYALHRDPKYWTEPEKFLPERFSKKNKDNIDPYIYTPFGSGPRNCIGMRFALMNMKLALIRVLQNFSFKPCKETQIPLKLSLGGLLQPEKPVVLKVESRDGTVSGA

[3] = in vitro; conditions: mouse
[4] = in vitro; conditions: human, plasma
[5] = biological target: T1, 5HT7 (h) (Homo sapiens, UniProt P34969); assay: 5HT subtype antagonism assay (Eurofins Cerep): 5HT7; type: cell-based
T1 construct: host or cells: CHO cells
T1 sequence (P34969 whole entry): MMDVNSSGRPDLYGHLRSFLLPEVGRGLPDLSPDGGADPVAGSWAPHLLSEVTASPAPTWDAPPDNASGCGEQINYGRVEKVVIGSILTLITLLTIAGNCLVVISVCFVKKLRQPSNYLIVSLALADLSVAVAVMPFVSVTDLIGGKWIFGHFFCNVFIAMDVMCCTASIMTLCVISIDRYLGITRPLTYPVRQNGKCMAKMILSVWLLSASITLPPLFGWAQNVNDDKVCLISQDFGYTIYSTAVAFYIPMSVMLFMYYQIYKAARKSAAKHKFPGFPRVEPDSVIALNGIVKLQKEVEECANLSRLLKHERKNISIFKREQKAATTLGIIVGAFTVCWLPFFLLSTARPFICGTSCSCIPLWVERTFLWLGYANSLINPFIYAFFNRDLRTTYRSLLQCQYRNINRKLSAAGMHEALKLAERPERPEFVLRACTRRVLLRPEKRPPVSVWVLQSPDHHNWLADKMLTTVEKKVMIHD
Experimental: The derivatives were evaluated at a concentration of 1 μM for their antagonist activity on the 5HT2A receptor (Tables 1–3)[33],[34]. Human 5HT2A stably transfected HEK293 cells (a type of cell derived from kidney embryos)[20] were seeded in a 96-well plate (Costar; 3603) at a density of 9 × 10^4 in 100 μL of minimum essential medium (Welgene; LM007-86) containing 10% dialyzed fetal bovine serum (Gibco; 30067–334) and 1% penicillin/streptomycin (Gibco; 15140-122) and kept in a 37 °C incubator for 24 h. The cells were stained with 100 μL of cytosolic calcium dye using the FLIPR calcium 6 assay solution (Molecular devices, #R8190) supplemented with 2.5 mM probenecid (Sigma; P8761) and incubated for 1 h at 37 °C. After 1 h, the designated amount of the compound was treated in each well and incubated for another 1 h at 37 °C. Then, the cells were loaded in a Flexstation 3 microplate reader (Molecular Devices; FlexStaion) and 50 μL of 5 μM 5HT (serotonin hydrochloride, Sigma; H9523) was injected from a source plate (Nunc 96-well polystyrene conical bottom MicroWell Plate, Thermo; 249662) and the fluorescence intensity (Ex/Em-485nm/ 525 nm) was measured. […]
Antagonism assay Source Stimulus Incubation Measured Detection Method […]

[6] = biological target: 5HT2A (Homo sapiens, UniProt P28223); assay: Human 5HT2A inhibition assay (FLIPR calcium 6, 5HT stimulus, stably transfected HEK293 cells); type: cell-based; parameters: expressed in transfected cells; host or cells: HEK293; conditions: HEK293, 1 μM; read-out: % Inhibition at 1 μM (SD)
5HT2A, sequence (P28223 whole entry): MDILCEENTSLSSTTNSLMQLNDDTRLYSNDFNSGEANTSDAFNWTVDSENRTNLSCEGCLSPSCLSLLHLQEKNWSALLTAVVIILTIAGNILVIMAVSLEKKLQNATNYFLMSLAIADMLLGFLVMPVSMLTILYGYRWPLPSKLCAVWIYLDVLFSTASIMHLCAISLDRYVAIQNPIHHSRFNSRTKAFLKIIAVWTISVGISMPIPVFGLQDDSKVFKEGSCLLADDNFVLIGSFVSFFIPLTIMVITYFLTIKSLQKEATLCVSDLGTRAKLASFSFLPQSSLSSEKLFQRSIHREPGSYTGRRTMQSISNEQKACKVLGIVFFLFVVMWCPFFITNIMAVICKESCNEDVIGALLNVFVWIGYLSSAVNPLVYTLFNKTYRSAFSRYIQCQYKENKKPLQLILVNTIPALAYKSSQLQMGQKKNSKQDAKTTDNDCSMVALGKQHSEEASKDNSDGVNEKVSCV
Experimental: The derivatives were evaluated at a concentration of 1 μM for their antagonist activity on the 5HT2A receptor (Tables 1–3)[33],[34]. […] The cells were stained with 100 μL of cytosolic calcium dye using the FLIPR calcium 6 assay solution (Molecular devices, #R8190) supplemented with 2.5 mM probenecid (Sigma; P8761) and incubated for 1 h at 37 °C. After 1 h, the designated amount of the compound was treated in each well and incubated for another 1 h at 37 °C. […] Experimental conditions for the 5HT subtypes can be found in the Supporting Information (Supplementary Table 1).

For `Cc1nc2n(c(=O)c1CCN1CCC(=C3c4ccc(Cl)cc4CCc4cccnc43)CC1)CCCC2O` (stereo not shown) [Compound 11c], the “body weight changes among the CDAHFD groups” value ([1]; 12 weeks) was “not significantly different”, the “clinical signs during the study period” value ([1]; CDAHFD mice, 5 and 10 mpk PO daily, 12 weeks) was “no abnormal clinical signs were observed” and the Body weight, Average ([1]; CDAHFD+11c 5mpk, week 0, 5 mice) was 20.6 g. For the same compound, the Body weight ([1]; CDAHFD+11c 5mpk, week 0, individual mouse, in g (unit assumed)) was 21.7 and 20.6 and 20.4 and 20.7 and 19.7, the Body weight, Average ([1]; CDAHFD+11c 5mpk, week 1, 5 mice) was 20.6 g and the Body weight ([1]; CDAHFD+11c 5mpk, week 1, individual mouse, in g (unit assumed)) was 21.2 and 20.8 and 20.5 and 20.7 and 19.7. It also gave a Body weight, Average ([1]; CDAHFD+11c 5mpk, week 2, 5 mice) of 20.1 g, a Body weight, Average ([1]; CDAHFD+11c 5mpk, week 3, 5 mice) of 19.9 g and a Body weight, Average ([1]; CDAHFD+11c 5mpk, week 4, 5 mice) of 20.3 g. For the same compound, the Body weight, Average ([1]; CDAHFD+11c 5mpk, week 5, 5 mice) was 20.5 g, the Body weight ([1]; CDAHFD+11c 5mpk, week 5, individual mouse, in g (unit assumed)) was 20.8 and 21.2 and 20.5 and 20.2 and 19.9 and the Body weight, Average ([1]; CDAHFD+11c 5mpk, week 6, 5 mice) was 20.8 g. For the same compound, the Body weight ([1]; CDAHFD+11c 5mpk, week 6, individual mouse) was 20.9 (2×) and 21.4 and 20.7 and 20.3, the Body weight, Average ([1]; CDAHFD+11c 5mpk, week 7, 5 mice) was 21.4 g and the Body weight ([1]; CDAHFD+11c 5mpk, week 7, individual mouse) was 22.0 (2×) and 21.7 and 21.0 and 20.4. For the same compound, the Body weight, Average ([1]; CDAHFD+11c 5mpk, week 8, 5 mice) was 21.6 g, the Body weight ([1]; CDAHFD+11c 5mpk, week 8, individual mouse, in g (unit assumed)) was 22.3 and 22.1 and 21.9 and 21.5 and 20.3 and the Body weight, Average ([1]; CDAHFD+11c 5mpk, week 9, 5 mice) was 22.1 g. For the same compound, the Body weight ([1]; CDAHFD+11c 5mpk, week 9, individual mouse) was 23.0 and 22.4 (2×) and 21.7 and 20.9, the Body weight, Average ([1]; CDAHFD+11c 5mpk, week 10, 5 mice) was 22.2 g and the Body weight ([1]; CDAHFD+11c 5mpk, week 10, individual mouse, in g (unit assumed)) was 23.1 and 22.5 and 22.4 and 22.3 and 20.8. For the same compound, the Body weight, Average ([1]; CDAHFD+11c 5mpk, week 11, 5 mice) was 22.5 g, the Body weight ([1]; CDAHFD+11c 5mpk, week 11, individual mouse, in g (unit assumed)) was 23.6 and 23.2 and 22.9 and 22.3 and 20.7 and the Body weight, Average ([1]; CDAHFD+11c 5mpk, week 12, 5 mice) was 22.5 g. For the same compound, the Body weight ([1]; CDAHFD+11c 5mpk, week 12, individual mouse, in g (unit assumed)) was 23.4 and 23.6 and 22.5 and 22.1 and 20.9, the Body weight, Average ([1]; CDAHFD+11c 10mpk, week 0, 5 mice) was 20.6 g and the Body weight ([1]; CDAHFD+11c 10mpk, week 0, individual mouse) was 21.3 (2×) and 20.1 and 20.3 and 20.0. The Body weight, Average ([1]; CDAHFD+11c 10mpk, week 1, 5 mice) was 20.4 g, the Body weight ([1]; CDAHFD+11c 10mpk, week 1, individual mouse) was 20.1 and 19.8 and 20.3 and 20.9 (2×) and the Body weight, Average ([1]; CDAHFD+11c 10mpk, week 2, 5 mice) was 20.3 g. For the same compound, the Body weight, Average ([1]; CDAHFD+11c 10mpk, week 3, 5 mice) was 20.3 g, the Body weight, Average ([1]; CDAHFD+11c 10mpk, week 4, 5 mice) was 20.5 g and the Body weight, Average ([1]; CDAHFD+11c 10mpk, week 5, 5 mice) was 20.9 g. The Body weight ([1]; CDAHFD+11c 10mpk, week 5, individual mouse) was 20.9 (2×) and 20.6 and 22.0 and 20.3, the Body weight, Average ([1]; CDAHFD+11c 10mpk, week 6, 5 mice) was 21.2 g and the Body weight ([1]; CDAHFD+11c 10mpk, week 6, individual mouse, in g (unit assumed)) was 21.4 and 20.9 and 22.2 and 20.8 and 20.5. The Body weight, Average ([1]; CDAHFD+11c 10mpk, week 7, 5 mice) was 21.5 g, the Body weight ([1]; CDAHFD+11c 10mpk, week 7, individual mouse, in g (unit assumed)) was 21.9 and 21.0 and 22.3 and 21.1 and 21.2 and the Body weight, Average ([1]; CDAHFD+11c 10mpk, week 8, 5 mice) was 21.8 g. For the same compound, the Body weight ([1]; CDAHFD+11c 10mpk, week 8, individual mouse) was 22.0 and 21.2 and 23.0 and 21.4 (2×), the Body weight, Average ([1]; CDAHFD+11c 10mpk, week 9, 5 mice) was 21.8 g and the Body weight ([1]; CDAHFD+11c 10mpk, week 9, individual mouse, in g (unit assumed)) was 22.6 and 21.2 and 22.8 and 21.5 and 21.1. For the same compound, the Body weight, Average ([1]; CDAHFD+11c 10mpk, week 10, 5 mice) was 22 g, the Body weight ([1]; CDAHFD+11c 10mpk, week 10, individual mouse, in g (unit assumed)) was 22.4 and 21.7 and 23.1 and 21.6 and 21.4 and the Body weight, Average ([1]; CDAHFD+11c 10mpk, week 11, 5 mice) was 22.4 g. The Body weight ([1]; CDAHFD+11c 10mpk, week 11, individual mouse) was 22.7 and 22.1 (2×) and 23.5 and 21.8, the Body weight, Average ([1]; CDAHFD+11c 10mpk, week 12, 5 mice) was 22.5 g and the Body weight ([1]; CDAHFD+11c 10mpk, week 12, individual mouse) was 22.9 and 22.3 (2×) and 23.3 and 21.6. For the same compound, the “Body weight, Mean Diff.” value ([1]; Column A (Vehicle, no CDAHFD) vs. Column C (11c 5mpk), in g (unit assumed)) was 3.52, the “Body weight, Mean Diff.” value ([1]; Column A (Vehicle, no CDAHFD) vs. Column D (11c 10mpk), in g (unit assumed)) was 3.44 and the “Body weight, Mean Diff.” value ([1]; Column B (CDAHFD+vehicle) vs. Column C (11c 5mpk), in g (unit assumed)) was 0.1462. For the same compound, the “Body weight, Mean Diff.” value ([1]; Column B (CDAHFD+vehicle) vs. Column D (11c 10mpk), in g (unit assumed)) was 0.06615, the “Body weight, Mean Diff.” value ([1]; Column C (11c 5mpk) vs. Column D (11c 10mpk)) was -0.08 and the “Body weight, Mean (one-way ANOVA)” value ([1]; Column C (CDAHFD+11c 5mpk), in g (unit assumed)) was 21.17. The “Body weight, Mean (one-way ANOVA)” value ([1]; Column D (CDAHFD+11c 10mpk), in g (unit assumed)) was 21.25, the inhibition at 10 µM [2] was 17.6% and the IC50 [3] was > 100000 nM. For the same compound, the remaining at 4 h [4] was > 98.6%, the “Selectivity 7: % inhibition” value ([5]; concentration not given) was 91% and the IC50 ([5]; read-out: Selectivity 7: IC50) was 100 nM. The inhibition at 1 µM [6] was 92.56 ± 0.77%.
